Results as given in US7491827B2, “Aryl sulfonamides useful as inhibitors of chemokine receptor activity” (Millennium Pharmaceuticals, Inc., priority 2003, dated 2009).
Where two headings read alike, the source gives them in different places.

Target: T1, cloned human CCR8 receptor stably expressed in L1.2 cells (Homo sapiens, UniProt P51685)
T1 construct: expressed in transfected cells
Experiment: whole cell binding screen: inhibition of biotinylated human I309 binding to CCR8 (FMAT 8100 HTS)
Conditions: biotinylated human I-309, 10 point concentration response starting at 10 μM
Source text: This whole cell binding screen evaluates the ability of compounds to inhibit biotinlyated human I309 binding to the cloned human CCR8 receptor stably expressed in L1.2 cells. Human CCR8 gene was amplified by PCR using PFU polymerase under standard conditions from human genomic DNA purchased from Stratagene. The PCR primers used were:
The 5′ and 3′ primers contained flanking enzyme sites (Bam Hi and Not 1,respectively), which were used to subclone the gene into pcDNA3.1. […] The CCR8 vector was then transfected into L1.2 cells (murine pre-B cells) by electroporation.
Compounds were screened using the FMAT™ 8100 HTS System (purchased from Applied Biosystems).
A suspension was prepared of L1.2/hCCR8 cells at 4.0×10^5 cells/mL in a binding buffer (Buffer consisting of Hanks Balanced Salt Solution (without phenol red), 10 mM HEPES, 0.1% Fatty Acid Free BSA, 0.02% Sodium Azide).
Dilution series of 10 mM stock concentrations of the test compounds were prepared in DMSO and further diluted into binding buffer defined above) to three times the final assay concentration.
10 point concentration response curve is constructed for each compound, starting at 10 μM (final assay concentration in Binding Buffer). […] The components were mixed in wells by covering the plate with aluminum foil and rotating for 0.5 hours. […] Average fluorescence reported for each concentration was normalized to percent inhibition based on negative (no inhibitor) and positive (100 nM excess unlabeled I309 (R and D Systems)) controls.

[1] = L1.2/hCCR8 cells, read-out: Ki of compounds to inhibit I-309 binding to CCR8
[2] = Ki of compounds to inhibit I-309 binding to CCR8, L1.2/hCCR8 cells

T1 sequence (P51685 whole entry): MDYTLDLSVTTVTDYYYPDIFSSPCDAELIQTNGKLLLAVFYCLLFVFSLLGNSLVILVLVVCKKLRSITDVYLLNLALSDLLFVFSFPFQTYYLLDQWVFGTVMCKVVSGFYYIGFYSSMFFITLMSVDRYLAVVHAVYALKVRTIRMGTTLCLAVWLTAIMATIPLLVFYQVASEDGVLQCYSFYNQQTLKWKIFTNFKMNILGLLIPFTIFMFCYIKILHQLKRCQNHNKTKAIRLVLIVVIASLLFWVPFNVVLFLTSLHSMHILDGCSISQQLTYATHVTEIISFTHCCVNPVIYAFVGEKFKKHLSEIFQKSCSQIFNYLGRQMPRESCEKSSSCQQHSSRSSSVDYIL

Ki [1] [µM] | Ki [2] [µM] | Structure (SMILES)
< 1 | – | CCOC(=O)N1CCC(NS(=O)(=O)c2ccc(NC(=O)c3ccccc3C)c3c2CCCC3=O)CC1 [Compound J-43, 4-[4-(2-Methyl-benzoylamino)-5-oxo-5,6,7,8-tetrahydro-naphthalene-1-sulfonylamino]-piperidine-1-carboxylic acid ethyl ester]
< 0.5 | – | Cc1ccccc1NC(=O)c1cccc2c(S(=O)(=O)NC3CCN(C(=O)N(C)C)CC3)cccc12 [Compound H-32, 4-(5-o-Tolylcarbamoyl-naphthalene-1-sulfonylamino)-piperidine-1-carboxylic acid dimethylamide]
< 0.5 | – | CCOC(=O)N1CCC(NS(=O)(=O)c2ccc(NC(=O)c3ccccc3C)c3c2CCC3)C1 (racemic) [Compound H-72, (±)-3-[7-(2-Methyl-benzoylamino)-indane-4-sulfonylamino]-pyrrolidine-1-carboxylic acid ethyl eter]
< 30 | – | CCOC(=O)N1CCC(NS(=O)(=O)c2cccc3c(C(=O)Nc4cccc(C)c4)cccc23)CC1 [Compound H-41, 4-(5-m-Tolylcarbamoyl-naphthalene-1-sulfonylamino)-piperidine-1-carboxylic acid ethyl ester]
< 30 | – | CCc1ccc(NS(=O)(=O)c2ccc3cccc(NC(=O)c4ccccc4)c3c2)cc1 [Compound H-49, N-[7-(4-Ethyl-phenylsulfamoyl)-naphthalen-1-yl]-benzamide]
< 0.5 | – | Cc1ccccc1C(=O)Nc1ccc(S(=O)(=O)NC2(C)CCNCC2)c2ccccc12 [Compound J-49]
< 0.5 | – | CCOC(=O)N1CCC(NS(=O)(=O)c2cccc3c(NC(=O)c4cc5ccccc5s4)cccc23)CC1 [Compound H-18, 4-{5-[(Benzo[b]thiophene-2-carbonyl)-amino]-naphthalene-1-suffonylamino}-piperidine-1-carboxylic acid ethyl ester]
< 0.5 | – | CC[C@H]1CN(C(=O)[C@@H]2CCCN2)CC[C@@H]1NS(=O)(=O)c1ccc(NC(=O)c2ccccc2C)c2ccccc12 [Compound J-31, (3S, 4S)-N-{4-[3-Ethyl-1-(pyrrolidine-2-(S)-carbonyl)-piperidin-4-ylsulfamoyl]-naphthalen-1-yl}-2-methyl-benzamide]
< 0.5 | – | CCCC(=O)N1CCC(NS(=O)(=O)c2cccc3c(C(=O)Nc4ccccc4C)cccc23)CC1 [Compound H-39, 5-(1-Butyryl-piperidin-4-ylsulfamoyl)-naphthalene-1-carboxylic acid o-tolylamide]
< 0.5 | – | CC[C@H]1CN(C(=O)[C@H](C)N)CC[C@@H]1NS(=O)(=O)c1ccc(NC(=O)c2ccccc2C)c2ccccc12 [Compound J-33, (3S, 4S)-N-{4-[1-(2-(S)-Amino-propionyl)-3-ethyl-piperidin-4-ylsulfamoyl]-naphthalen-1-yl}-2-methyl-benzamide]

More lines, now with the values behind:

Structure (SMILES) | Ki [1] [µM] | Ki [2] [µM]
Cc1ccccc1C(=O)Nc1ccc(S(=O)(=O)NC2CCCNC2)c2ccccc12 (racemic) [Compound C-112, (±)-2-Methyl-N-[4-(piperidin-3-ylsulfamoyl)-naphthalen-1-yl]-benzamide] | < 1 | –
CCCC(=O)N1CCC(NS(=O)(=O)c2ccc(NC(=O)c3ccccc3C)c3c2CCCC3)CC1 [Compound E-1, N-[4-(1-Butyryl-piperidin-4-ylsulfamoyl)-5,6,7,8-tetrahydro-naphthalen-1-yl]-2-methyl-benzamide] | < 0.5 | –
CCOC(=O)N1CCC(NS(=O)(=O)c2ccc(NC(=O)c3ccccc3)c3ccccc23)CC1 [Compound A-34, 4-(4-Benzoylamino-naphthalene-1-sulfonylamino)-piperidine-1-carboxylic acid ethyl ester] | – | < 30
CCNC(=O)N1CCC(NS(=O)(=O)c2ccc(NC(=O)c3ccccc3C)c3ccccc23)CC1 [Compound C-34, 4-[4-(2-Methyl-benzoylamino)-naphthalene-1-sulfonylamino]-piperidine-1-carboxylic acid ethylamide] | – | < 0.5
Cc1ccccc1C(=O)Nc1ccc(S(=O)(=O)N[C@H]2CCNC[C@H]2C)c2ccccc12 (racemic) [Compound C-28, (±)-cis-2-Methyl-N-[4-(3-methyl-piperidin-4-ylsulfamoyl)-naphthalen-1-yl]-benzamide] | < 1 | –
CCOC(=O)N1CC[C@H](NS(=O)(=O)c2ccc(NC(=O)c3cccnc3C)c3ccccc23)[C@@H](C)C1 (racemic) [Compound D-9, (±)-(trans)-3-Methyl-4-{4-[(2-methyl-pyridine-3-carbonyl)-amino]-naphthalene-1-sulfonylamino}-piperidine-1-carboxylic acid ethyl ester] | < 0.5 | –
CN(C)C(=O)N1CCC(NS(=O)(=O)c2ccc(C(=O)N(C)C3CCCCC3)c3ccccc23)CC1 [Compound F-28, 4-[4-(Cyclohexyl-methyl-carbamoyl)-naphthalene-1-sulfonylamino]-piperidine-1-carboxylic acid dimethylamide] | < 0.5 | –
CCOC(=O)N1CCC(NS(=O)(=O)c2ccc(CNC(=O)c3ccccc3C)c3ccccc23)CC1 [Compound G-1, 4-{4-[(2-Methyl-benzoylamino)-methyl]-naphthalene-1-sulfonylamino}-piperidine-1-carboxylic acid ethyl ester] | < 0.5 | –
CCOC(=O)N1CCC(NS(=O)(=O)c2ccc(CNCc3ccncc3)c3ccccc23)CC1 [Compound G-15, 4-(4-{[(Pyridin-4-ylmethyl)-ainno]-methyl}-naphthalene-1-sulfonylamino)-piperidine-1-carboxylic acid ethyl ester] | < 1 | –
C[C@@H]1CNCC[C@@H]1NS(=O)(=O)c1ccc(N2C(=O)c3ccccc3C2=O)c2ccccc12 (racemic) [Compound C-74, (±)-(cis)-4-(1,3-Dioxo-1,3-dihydro-isoindol-2-yl)-naphthalene-1-sulfonic acid (3-methyl-piperidin-4-yl)-amide] | < 30 | –
CCOC(=O)N1CCC(NS(=O)(=O)c2ccc(CNCCc3ccccc3)c3ccccc23)CC1 [Compound G-24, 4-[4-(Phenethylamino-methyl)-naphthalene-1-sulfonylamino]-piperidine-1-carboxylic acid ethyl ester] | < 0.5 | –
COc1cccc(NS(=O)(=O)c2ccc(NC(=O)c3ccccc3)c3ccccc23)c1 [Compound A-1, N-[4-(3-Methoxy-phenylsulfamoyl)-naphthalen-1-yl]-benzamide] | < 0.5 | –
Cc1cccc(NC(=O)c2ccc(S(=O)(=O)NC3CCN(C(=O)N(C)C)CC3)c3ccccc23)c1C [Compound F-20, 4-[4-(2,3Dimethyl-phenylcarbamoyl)-naphthalene-1-sulfonylamino]-piperidine-1-carboxylic acid dimethylamide] | < 0.5 | –
Cc1ccccc1C(=O)Nc1ccc(S(=O)(=O)NC2[C@@H](C)CNC[C@@H]2C)c2ccccc12 (racemic) [Compound C-64, (±)-(cistrans)-N-[4-(3,5-Dimethyl-piperidin-4-ylsulfamoyl)-naphthalen-1-yl]-2-methyl-benzamide] | < 0.5 | –
CNC(=O)N1CCC(NS(=O)(=O)c2ccc(NC(=O)c3ccccc3C)c3c2CCCC3)CC1 [Compound E-22, 4-[4-(2-Methyl-benzoylamino)-5,6,7,8-tetrahydro-naphthalene-1-sulfonylamino]-piperidine-1-carboxylic acid methylamide] | < 0.5 | –
O=C(NC1CCOCC1)c1ccc(S(=O)(=O)NC2CCNCC2)c2ccccc12 [Compound F-18, 4-(Piperidin-4-ylsulfamoyl)-naphthalene-1-carboxylic acid (tetrahydro-pyran-4-yl)-amide] | < 30 | –
COc1ccc(NS(=O)(=O)c2ccc(NC(=O)Nc3ccccc3)c3ccccc23)cc1 [Compound B-10, 4-(3-Phenyl-ureido)-naphthalene-1-sulfonic acid (4-methoxy-phenyl)-amide] | < 30 | –
Cc1ccccc1C(=O)Nc1ccc(S(=O)(=O)N[C@@H]2CCN(Cc3ccccc3)C[C@H]2C)c2ccccc12 (racemic) [Compound A-23, (±)-trans-N-[4-(1-Benzyl-3-methyl-piperidin-4-ylsulfamoyl)-naphthalen-1-yl]-2-methyl-benzamide] | < 0.5 | –
COc1ccc(NS(=O)(=O)c2ccc(NC(=O)C3CCCCC3)c3ccccc23)cc1 [Compound B-4, Cyclohexanecarboxylic acid [4-(4-methoxy-phenylsulfamoyl)-naphthalen-1-yl]-amide] | < 0.5 | –
O=C(Nc1ccc(S(=O)(=O)NCc2ccccc2)c2ccccc12)c1ccccc1 [Compound A-3, N-(4-Benzylsulfamoyl-naphthalen-1-yl)-benzamide] | – | < 0.5
CCCC(=O)N1CC[C@H](NS(=O)(=O)c2ccc(NC(=O)c3c(C)noc3C)c3ccccc23)[C@H](C)C1 (racemic) [Compound D-5, (±)-(cis)-3,5-Dimethyl-isoxazole-4-carboxylic acid [4-(1-butyryl-3-methyl-piperidin-4-ylsulfamoyl)-naphthalen-1-yl]-amide] | < 0.5 | –
CCCC(=O)N1CCC(NS(=O)(=O)c2ccc(C(=O)Nc3ccccc3Cl)c3ccccc23)CC1 [Compound F-22, 4-(1-Butyryl-piperidin-4-ylsulfamoyl)-naphthalene-1-carboxylic acid (2-chloro-phenyl)-amide] | < 0.5 | –
